Data on 18 molecules can be found in ChEMBL document CHEMBL1759923, “Preparation, in vitro screening and molecular modelling of symmetrical bis-quinolinium cholinesterase inhibitors--implications for early myasthenia gravis treatment” (Bioorg Med Chem Lett, 2011).

Calls of active or inactive are those of the source. The calls are words filed in the database; no cut-off is given here.

Assay [1] has as its target Cholinesterase (Homo sapiens, UniProt P06276). The assay is described as follows: Inhibition of human plasmatic BChE by modified Ellman's method. On the set-up: species or system Plasma.
The target of assay [2] is T1, Acetylcholinesterase (Homo sapiens, UniProt P22303). The assay is described as follows: Inhibition of human erythrocyte recombinant AChE by modified Ellman's method.
Assay [3] deals with T1, Acetylcholinesterase. Briefly: Inhibition of human erythrocytes recombinant AChE assessed as dissociation constant for enzyme-inhibitor complex.
The target in assay [4] is T1, Acetylcholinesterase. Briefly: Inhibition of human erythrocytes recombinant AChE assessed as dissociation constant for enzyme-inhibitor-substrate complex.
For assay [5], the target named is T1, Acetylcholinesterase. Briefly: Inhibition of human erythrocyte recombinant AChE at 0.1 mM to […] by modified Ellman's method.

T1 sequence (P22303 whole entry): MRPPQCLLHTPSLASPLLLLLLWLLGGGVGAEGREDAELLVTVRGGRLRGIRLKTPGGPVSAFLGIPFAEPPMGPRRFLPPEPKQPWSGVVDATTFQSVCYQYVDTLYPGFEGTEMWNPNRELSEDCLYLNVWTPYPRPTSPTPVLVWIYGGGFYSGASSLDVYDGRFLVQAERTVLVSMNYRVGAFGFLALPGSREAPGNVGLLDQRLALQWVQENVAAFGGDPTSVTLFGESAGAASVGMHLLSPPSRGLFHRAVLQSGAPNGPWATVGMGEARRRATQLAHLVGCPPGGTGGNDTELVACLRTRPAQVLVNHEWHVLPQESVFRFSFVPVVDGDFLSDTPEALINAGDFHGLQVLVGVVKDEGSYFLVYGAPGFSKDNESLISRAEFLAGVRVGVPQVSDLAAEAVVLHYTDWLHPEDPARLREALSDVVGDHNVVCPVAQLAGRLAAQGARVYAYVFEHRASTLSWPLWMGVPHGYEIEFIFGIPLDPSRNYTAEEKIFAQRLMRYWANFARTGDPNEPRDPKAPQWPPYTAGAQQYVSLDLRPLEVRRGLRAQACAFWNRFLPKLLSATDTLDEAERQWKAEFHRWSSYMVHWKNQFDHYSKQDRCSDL
Chain of Cholinesterase (P06276 whole entry): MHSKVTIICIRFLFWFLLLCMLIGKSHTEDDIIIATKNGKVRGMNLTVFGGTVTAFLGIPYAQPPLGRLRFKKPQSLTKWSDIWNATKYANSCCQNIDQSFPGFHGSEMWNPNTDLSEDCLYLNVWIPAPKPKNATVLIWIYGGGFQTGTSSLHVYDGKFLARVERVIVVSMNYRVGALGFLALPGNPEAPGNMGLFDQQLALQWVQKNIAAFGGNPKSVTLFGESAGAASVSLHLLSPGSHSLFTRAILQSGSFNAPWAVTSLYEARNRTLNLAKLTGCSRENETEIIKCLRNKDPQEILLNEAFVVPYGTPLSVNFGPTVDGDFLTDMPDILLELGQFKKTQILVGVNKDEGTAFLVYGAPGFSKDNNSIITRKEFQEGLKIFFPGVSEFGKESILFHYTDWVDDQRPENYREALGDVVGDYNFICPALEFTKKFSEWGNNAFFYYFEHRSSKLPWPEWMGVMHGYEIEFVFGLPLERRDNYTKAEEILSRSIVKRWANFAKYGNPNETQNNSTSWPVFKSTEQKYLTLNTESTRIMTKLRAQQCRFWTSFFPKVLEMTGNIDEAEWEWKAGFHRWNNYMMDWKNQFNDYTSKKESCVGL

For `c1ccc2c(c1)ccc[n+]2CCCCCC[n+]1cccc2ccccc21`, the concentration for half-maximal inhibition (IC50) in assay [1] turned out to be 5 µM; in assay [2] it was 25 µM.
Consider `c1ccc2c(c1)ccc[n+]2COC[n+]1cccc2ccccc21`, for which the IC50 in assay [1] amounted to 871 µM; in assay [2], 418 µM.
Regarding `C[N+](C)(CCNC(=O)C(=O)NCC[N+](C)(C)Cc1ccccc1Cl)Cc1ccccc1Cl` [AMBENONIUM DICHLORIDE], in assay [1], inhibition was half-maximal at 7 µM (IC50).
On to `c1ccc(C[n+]2cccc3ccccc32)c(C[n+]2cccc3ccccc32)c1`, for which the values for the half-maximal inhibitory concentration (IC50) in assay [1] and in assay [2] were 6 µM and 35 µM, respectively.
As for `c1ccc2c(c1)ccc[n+]2Cc1ccc2ccc(C[n+]3cccc4ccccc43)cc2c1`, the IC50 is 0.2 µM in assay [1] and 0.8 µM in assay [2]. Besides, the inhibitory constant (Ki) was 2.3 µM in assay [3] and 8.2 µM in assay [4].
Consider `c1ccc2c(c1)ccc[n+]2CCCCCCC[n+]1cccc2ccccc21`, for which the IC50 is 0.4 µM in assay [1] and 0.09 µM in assay [2].
In the case of `c1ccc2c(c1)ccc[n+]2CCCCCCCCCCCC[n+]1cccc2ccccc21`, the values for the IC50 in assay [1] and in assay [2] were 0.4 µM and 0.02 µM, respectively.
Regarding `c1ccc2c(c1)ccc[n+]2CCCCCCCCCCC[n+]1cccc2ccccc21`, the IC50 in assay [1] came to 0.5 µM; in assay [2], 0.01 µM.
As to `c1ccc2c(c1)ccc[n+]2Cc1ccc(C[n+]2cccc3ccccc32)cc1`, the inhibition result in assay [5] is “inactive”.
`c1cc(C[n+]2cccc3ccccc32)cc(C[n+]2cccc3ccccc32)c1`: the IC50 in assay [1] worked out at 20 µM; in assay [2], 40 µM.
Take `C(=C/C[n+]1cccc2ccccc21)/C[n+]1cccc2ccccc21`: the IC50 was 0.8 µM in assay [1] and 2 µM in assay [2].
The matching figures for `c1ccc2c(c1)ccc[n+]2CCCCCCCC[n+]1cccc2ccccc21`: 0.7 µM and 0.08 µM.
For `C(=C\C[n+]1cccc2ccccc21)/C[n+]1cccc2ccccc21` the same measures were 308 µM and 6 µM.
With `c1ccc2c(c1)ccc[n+]2CCC[n+]1cccc2ccccc21`, the IC50 in assay [1] amounted to 13 µM; in assay [2], 9 µM.
The matching figures for `c1ccc2c(c1)ccc[n+]2CCOCC[n+]1cccc2ccccc21`: 48 µM and 35 µM.
For the molecule `c1ccc2c(c1)ccc[n+]2CCCC[n+]1cccc2ccccc21`, the IC50 in assay [1] was 32 µM; in assay [2], 38 µM.
In the case of `c1ccc2c(c1)ccc[n+]2CCCCC[n+]1cccc2ccccc21`, the IC50 was determined as 34 µM in assay [1] and 4 µM in assay [2].
As to `c1ccc2c(c1)ccc[n+]2CCCCCCCCC[n+]1cccc2ccccc21`, the IC50 is 0.6 µM in assay [1] and 0.08 µM in assay [2].
